Results as given in patent publication US20140179681A1, “METHODS AND COMPOSITIONS OF TARGETED DRUG DEVELOPMENT” (priority 2010, published 2014).
pIC50: −log10 of the molar value. Structures can show the parent of a compound that is named as a salt. Where two headings read alike, the source gives them in different places. Each block holds one molecule with its values, some of them ahead of it.

Tests used:
[1] = test system: epithelial carcinoma A431 cell line; assay: MTT Cell Proliferation Assay, A431 cells; type: cell-based; conditions: for MTT Screen, first value of cell: first value of 'a/b (c)'; for IC50: unit not printed (doses in μM); for MTT Assay IC50(A431/MDBK): ratio in parentheses: ratio MDBK IC50 / A431 IC50 (selectivity)
Summary of the method: (§1)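 Each concentration ran in quadruplicate across duplicate plates, with compounds serially diluted in DMSO and delivered at 0.5% DMSO in 0.5% FBS medium for 3 days.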

EGFR = molecular target: T1, EGFR (Homo sapiens, UniProt P00533); assay: EGFR in-cell Western (ICW) screening protocol (EGFR inhibition assay); type: cell-based; set-up: ICW 1 / ICW 2 / ICW Avg: unit not given here; conditions: for ICW assay: Table 10; for ICW Avg / ICW 1 / ICW 2: ICW assay; for ICW Avg: average of runs 1 and 2; for ICW 1: run 1; for ICW 2: run 2
T1 construct: host or cells: A431
Summary of the method: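 In-cell Western read-out: fixed A431 cells were co-stained for total EGFR and phospho-EGFR (Tyr1173; some runs Tyr1045). Before fixation, cells were serum-starved for 2 h, exposed to compound for 4 h, then given EGF for 10 min, usually at 10 ng/ml final (6.6 or 12.5 ng/ml in some runs).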

MDBK line = assay: MTT Cell Proliferation Assay, MDBK cells; type: cell-based, bovine; conditions: for IC50: unit not printed (doses in μM)
Summary of the method: as §1

[2] = Homo sapiens, A-431, first value of 'a/b (c)', taken as A431 cells, read-out: MTT Screen, first value of cell
[3] = Bos taurus, MDBK, second value of 'a/b (c)', taken as MDBK cells, read-out: MTT Screen, second value of cell
[4] = Homo sapiens, A-431, 72 h, Table 10, first of x/y(ratio): A431, three day treatment, read-out: MTT assay (first value)
[5] = % Inhibition of EGF dependent EGFR phosphorylation in A431 cells, compound 125 μM in assay
[6] = Bos taurus, MDBK, 72 h, Table 10, second of x/y(ratio): MDBK, three day treatment, read-out: MTT assay (second value)
[7] = Homo sapiens, A-431, A431 cells, first value of cell, read-out: MTT Assay IC50(A431/MDBK): A431
[8] = Bos taurus, MDBK, MDBK cells, second value of cell, read-out: MTT Assay IC50(A431/MDBK): MDBK

T1 sequence (P00533 25-1210): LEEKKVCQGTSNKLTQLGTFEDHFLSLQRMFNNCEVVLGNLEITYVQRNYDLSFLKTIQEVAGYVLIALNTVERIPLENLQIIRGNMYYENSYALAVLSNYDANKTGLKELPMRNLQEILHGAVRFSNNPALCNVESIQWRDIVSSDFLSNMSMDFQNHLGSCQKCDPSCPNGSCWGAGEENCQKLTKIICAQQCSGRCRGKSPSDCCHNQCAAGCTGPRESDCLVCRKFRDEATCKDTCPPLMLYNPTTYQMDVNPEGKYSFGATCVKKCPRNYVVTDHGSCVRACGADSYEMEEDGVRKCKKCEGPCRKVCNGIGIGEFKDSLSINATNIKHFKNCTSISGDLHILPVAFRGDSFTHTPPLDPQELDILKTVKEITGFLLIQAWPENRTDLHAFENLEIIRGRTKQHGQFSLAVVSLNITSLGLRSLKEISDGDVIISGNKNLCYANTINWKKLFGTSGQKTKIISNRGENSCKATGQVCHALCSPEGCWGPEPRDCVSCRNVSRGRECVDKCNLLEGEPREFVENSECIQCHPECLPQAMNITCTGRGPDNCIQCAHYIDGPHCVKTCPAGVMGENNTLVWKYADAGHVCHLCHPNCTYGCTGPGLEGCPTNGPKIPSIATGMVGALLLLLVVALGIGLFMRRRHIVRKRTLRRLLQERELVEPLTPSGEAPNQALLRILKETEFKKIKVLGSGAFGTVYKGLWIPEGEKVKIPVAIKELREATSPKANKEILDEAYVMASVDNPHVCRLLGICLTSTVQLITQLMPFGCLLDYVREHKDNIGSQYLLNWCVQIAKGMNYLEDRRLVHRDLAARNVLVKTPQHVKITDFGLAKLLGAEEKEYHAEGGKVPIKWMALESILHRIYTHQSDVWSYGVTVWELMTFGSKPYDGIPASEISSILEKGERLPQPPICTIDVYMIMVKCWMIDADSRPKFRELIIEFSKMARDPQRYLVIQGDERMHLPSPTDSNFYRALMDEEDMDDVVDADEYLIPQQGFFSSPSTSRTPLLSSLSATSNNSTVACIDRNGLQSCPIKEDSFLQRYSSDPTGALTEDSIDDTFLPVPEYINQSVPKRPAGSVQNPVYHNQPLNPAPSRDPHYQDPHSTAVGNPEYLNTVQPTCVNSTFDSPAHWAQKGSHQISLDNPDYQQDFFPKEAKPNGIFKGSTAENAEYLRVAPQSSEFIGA

Compound: Cc1ccc(NS(=O)(=O)c2ccc(NC(=S)NC(=O)C(C)C)cc2)cc1C [AD4-12003]
pIC50 [1, 2]: 4.94
ICW Screen (ICW Inhibition) (EGFR): 32.007
pIC50 (MDBK line; [3]): 4.89

Compound: CCc1nnc(NS(=O)(=O)c2ccc(NC(=S)NC(=O)/C=C/c3ccc(OC)cc3)cc2)s1 [AD4-11637]
MTT Screen, first value of cell ([1]; taken as A431 cells): non- conver- gent
ICW Screen (ICW Inhibition) (EGFR): 33.491
pIC50 (MDBK line; [3]): 4.75

Compound: COc1ccc(CC(=O)NC(=S)Nc2ccc(S(=O)(=O)NCCc3ccccc3)cc2)cc1 [AD4-11415]
pIC50 [1, 2]: 4.80
ICW Screen (ICW Inhibition) (EGFR): 35.841
pIC50 (MDBK line; [3]): 4.98

Compound: CN1CCN(S(=O)(=O)c2ccc(NC(=S)NC(=O)/C=C/c3ccccc3Cl)cc2)CC1 [AD4-12059]
pIC50 [1, 2]: 4.49
ICW Screen (ICW Inhibition) (EGFR): 28.33
pIC50 (MDBK line; [3]): 4.42

Compound: Cc1ccc2nc(Nc3nc(C)c(CCC(C)C)c(=O)[nH]3)nc(C)c2c1 [12666 + TFA]
pIC50 [1, 7]: 4.84
MTT Assay IC50(A431/MDBK): ratio in parentheses [1]: 1.18
ICW Avg (EGFR): 36.77
ICW 1 (EGFR): 48.16
ICW 2 (EGFR): 25.37
pIC50 (MDBK line; [8]): 4.77

Compound: COc1cc(NS(=O)(=O)c2ccc(NC(=S)NC(=O)/C=C/c3ccccc3)cc2)nc(OC)n1 [AD4-12122]
MTT Screen, first value of cell ([1]; taken as A431 cells): non- conver- gent
ICW Screen (ICW Inhibition) (EGFR): 35.068
pIC50 (MDBK line; [3]): 4.39

Compound: COc1ccc(CC(=O)NC(=S)Nc2ccc(S(=O)(=O)Nc3ccc(C)c(C)c3)cc2)cc1 [AD4-11418]
pIC50 [1, 2]: 4.92
ICW Screen (ICW Inhibition) (EGFR): 34.067
pIC50 (MDBK line; [3]): 4.99

Compound: Cc1cc2nc(Nc3nc(=O)c(C)c(C)[nH]3)nc(C)c2cc1C [12630 + TFA]
pIC50 [1, 7]: 4.93
MTT Assay IC50(A431/MDBK): ratio in parentheses [1]: 0.75
ICW Avg (EGFR): 26.02
ICW 1 (EGFR): 17.06
ICW 2 (EGFR): 34.97
pIC50 (MDBK line; [8]): 5.06

Compound: CCOc1ccc(NS(=O)(=O)c2ccc(NC(=S)Nc3ccccc3)cc2)cc1 [AD4-11344]
IC50 [1, 4]: 15.1 µM
ICW assay (EGFR; [5]): 34.1727
IC50 (MDBK line; [6]): 15.3 µM

Compound: Cc1cc(C)c2c(CN3CCN(Cc4ccc5c(c4)OCO5)CC3)cc(=O)oc2c1 [AD4-10182]
IC50 ([1]; Homo sapiens, A-431, 72 h, Table 11, first of x/y(ratio): A431, read-out: MTT Screen (first value)): 6.78 µM
pIC50 ([1]; Homo sapiens, A-431, Table 11, first of x/y(ratio): A431, unit inferred, read-out: MTT Follow-up (first value)): 5.43
ICW Screen (EGFR; Table 11, % Inhibition of EGF dependent EGFR phosphorylation in A431 cells, compound 125 μM in assay): 39.51
IC50 (MDBK line; Bos taurus, MDBK, Table 11, second of x/y(ratio): MDBK, read-out: MTT Screen (second value)): 43.3 µM
MTT Follow-up (second value) (MDBK line; Table 11, second of x/y(ratio): MDBK, unit not given): non- convergent

Compound: Cc1ccccc1C(=O)NC(=S)Nc1ccc(S(=O)(=O)Nc2ccccc2)cc1 [AD4-10706]
pIC50 [1, 2]: 4.82
ICW Screen (ICW Inhibition) (EGFR): 55.497
pIC50 (MDBK line; [3]): 4.64

Compound: CC(C)CC(=O)NC(=S)Nc1ccc(S(=O)(=O)NCCc2ccccc2)cc1 [AD4-10608]
pIC50 [1, 2]: 5.20
ICW Screen (ICW Inhibition) (EGFR): 62.846
pIC50 (MDBK line; [3]): 5.27

More lines, main results first:

IC50 [1, 4]: 8.36 µM
ICW assay (EGFR; [5]): 38.3844
Compound: COc1ccc(NC(=S)Nc2ccc(S(=O)(=O)Nc3ccc(Cl)c(Cl)c3)cc2)cc1OC [AD4-12246]
IC50 (MDBK line; [6]): 8.01 µM

pIC50 [1, 7]: 5.61
pIC50 ([1]; Homo sapiens, A-431, follow-up MTT, A431 cells, first value, read-out: MTT Follow-up: A431): 4.31
ICW Avg (EGFR): 49.89
ICW 1 (EGFR): 59.77
ICW 2 (EGFR): 40.01
Compound: Cc1nc(Nc2nc(CSc3nc4ccccc4[nH]3)cc(=O)[nH]2)nc2ccccc12 [compound 11582]
MTT Follow-up: ratio in parentheses ([1]; follow-up MTT, ratio MDBK/A431): 1.13
pIC50 (MDBK line; [8]): 5.61
pIC50 (MDBK line; Bos taurus, MDBK, follow-up MTT, MDBK cells, second value, read-out: MTT Follow-up: MDBK): 4.25

pIC50 [1, 7]: 4.68
MTT Assay IC50(A431/MDBK): ratio in parentheses [1]: 0.55
ICW Avg (EGFR): 26.32
ICW 1 (EGFR): 21.30
ICW 2 (EGFR): 31.34
Compound: CCCc1c[nH]c(Nc2nc(C)c3ccccc3n2)nc1=O [compound 12622]
pIC50 (MDBK line; [8]): 4.94

IC50 ([1]; Table 10, first of x/y(ratio): A431, three day treatment, read-out: MTT assay (first value)): 12.2 µM
ICW assay (EGFR; [5]): 72.5659
Compound: CCN(c1ccccc1)S(=O)(=O)c1ccc(NC(=S)Nc2ccccc2)cc1 [AD4-12389]
IC50 (MDBK line; Table 10, second of x/y(ratio): MDBK, three day treatment, read-out: MTT assay (second value)): 6.07 µM

IC50 [1, 4]: 9.92 µM
ICW assay (EGFR; [5]): 31.3476
Compound: CCOc1ccccc1NC(=S)Nc1ccc(S(=O)(=O)Nc2c(C)cc(C)cc2C)cc1 [AD4-12465]
IC50 (MDBK line; [6]): 6.54 µM

pIC50 [1, 7]: 5.22
MTT Assay IC50(A431/MDBK): ratio in parentheses [1]: 3.28
ICW Avg (EGFR): 29.18
ICW 1 (EGFR): 27.71
ICW 2 (EGFR): 30.66
Compound: COc1ccc2nc(Nc3nc(CSc4ccc(C)cc4)cc(=O)[nH]3)nc(C)c2c1 [compound 11617]
pIC50 (MDBK line; [8]): 4.70
